Experimental data taken from US10238631B2, “Sesquiterpene derivatives and their use in inflammation or cancer treatment” (Academia Sinica, priority 2014, dated 2019).
pIC50: −log10 of the molar value.

Tests used:
[1] = system: MCF-7 (ER+, Her2−) human breast cancer cells; experiment: MTT cell viability assay, MCF-7 cells; format: cell-based; conditions: MCF7, 24 h, read-out: IC50 on cell viability, MCF-7 (ER+, Her2−)
Method: (§1) Normal or cancer cells (2×10^3 to 1×10^4 cells/well) were seeded in 96-well plate for overnight and treated with different compounds for 24 h to 72 h. Cells growth were determined by MTT-based colorimetric assays according to. Viability of the test cells treated with vehicle (0.5% DMSO) only was defined as 100% viable. Survival of cells after treatment with DETDs was calculated using the following formula: viable cell number (%)=OD570 (treated cell culture)/OD570 (vehicle control)×100.
(§2) Sixty DETDs were derived from parental compound […] and tested for anti-breast cancer cell activity.

[2] = system: TS/A (ER+, Her2−) murine mammary cancer cells; experiment: MTT cell viability assay, TS/A cells; format: cell-based; conditions: Mus musculus, 24 h, read-out: IC50 on cell viability, TS/A (ER+, Her2−)
Method: as §1, §2

[3] = system: M10 normal mammary epithelial cells; experiment: MTT cell viability assay, M10 normal cells; format: cell-based, human; conditions: 24 h; for pIC50: Homo sapiens, Epithelial cell
Method: as §1, §2

[4] = system: HTB-68 (NRAS mutation); experiment: MTT cell viability assay, HTB-68 melanoma; format: cell-based, human; conditions: Homo sapiens, 24 h
Method: as §1
(§3) Several genes are involved in melanoma development and pathology; specifically, mutation in V-raf murine sarcoma viral oncogene homolog B1 (B-RAF) occurs approximately 50-60% and in neuroblastoma RAS viral oncogene homolog (N-RAS) occurs about 30% of malignant melanomas. A spectrum of wild-type or mutated melanoma cell lines including B16-F10, MeWo, A375, A2058, HTB-68, and melanocyte were used to study anti-melanoma cell proliferation activity of parental phytocompound DET and newly synthesized DETDs.

[5] = system: MDA-MB-231 (ER−, PR−, Her2−) human breast cancer cells; experiment: MTT cell viability assay, MDA-MB-231 cells; format: cell-based; conditions: Homo sapiens, MDA-MB-231, 24 h, read-out: IC50 on cell viability, MDA-MB-231 (ER−, PR−, Her2−)
Method: as §1, §2

[6] = system: RAW264.7 (normal macrophage); experiment: MTT cell viability assay, RAW264.7 macrophages; format: cell-based, mouse; conditions: Mus musculus, RAW264.7, 24 h
Method: as §1
(§4) Marcophages (2×10^5 cells/well in 96-well plate) were treated with compounds for 1 h, then incubated further for 24 h with or without the presence of […] LPS in the cultural medium. Nitrite levels in cell culture medium were determined by the Griess reaction method. In parallel to the Griess assays, macrophage cell viabilities were determined using the MTT based colorimetric assay.

[7] = system: B16-F10 (NRAS mutation); experiment: MTT cell viability assay, B16-F10 melanoma; format: cell-based; conditions: Mus musculus, B16-F10, 24 h, 24 h, read-out: IC50 on cell viability, B16-F10 (NRAS mutation)
Method: as §1, §3

[8] = system: LPS-induced nitric oxide (NO) production in RAW 264.7 cells; experiment: Nitric oxide production in LPS-stimulated macrophages (Griess); format: cell-based, mouse; conditions: Mus musculus; LPS-stimulated RAW264.7, nitrite 24 h after LPS
Method: as §4
LPS from the outer membrane of Gram-negative bacteria can induce mRNA or protein levels of inducible nitric oxide synthase (iNOS), which catalyzes oxidative deamination of L-arginine to produce nitric oxide (NO). Once NO is predominantly produced, it interacts with superoxide anion and generates highly reactive oxidants resulting in cellular inflammation, DNA, protein and tissue damages, carcinogenesis, and antiapoptosis. We used in vitro LPS stimulated inflammation in RAW264.7 cell system to evaluate the effect of DET and its derivatives DETDs on NO production by determination of nitrite level (equivalent to NO level) in culture medium 24 h after LPS treatment.

[9] = system: Melanocyte (Normal cells); experiment: MTT cell viability assay, normal melanocytes; format: cell-based, human; conditions: Homo sapiens, Melanocyte, 24 h
Method: as §1, §3

[10] = system: MeWo (No NRAS or BRAF mutation); experiment: MTT cell viability assay, MeWo melanoma; format: cell-based, human; conditions: Homo sapiens, MeWo, 24 h
Method: as §1, §3

[11] = system: A375 (BRAF mutation); experiment: MTT cell viability assay, A375 melanoma; format: cell-based, human; conditions: Homo sapiens, A-375, 24 h, 24 h, MTT; read-out: IC50 on cell viability, A375 (BRAF mutation)
Method: as §1, §3
To investigate whether or not DETD-35 show synergism with PLX4032 against A375 melanoma cells, we performed anti-proliferation assay using MTT reagent to obtain IC50 of each compound. […] The synergistic effect was quantified by combination index (CI) analysis as stated above.

[12] = system: A2058 (BRAF mutation); experiment: MTT cell viability assay, A2058 melanoma; format: cell-based, human; conditions: Homo sapiens, A2058, 24 h
Method: as §1, §3

pIC50 [1]	pIC50 [2]	pIC50 [4]	pIC50 [5]	pIC50 [7]	pIC50 [8]	pIC50 [10]	pIC50 [11]	pIC50 [12]	SMILES	pIC50 [3]	pIC50 [6]	pIC50 [9]	IC50 on cell viability, M10 (normal) [3]
5.62	5.80	5.11	5.34	5.33	5.62	< 5.00	5.39	5.24	C=C1C(=O)OC2CC3=C[C@@H](C/C(C)=C/C(OC(=O)/C(C)=C/CC)[C@H]12)OC3=O (stereo partly shown) [DETD-5]	< 5.12	< 5.00	< 5.00	
5.23	5.70	< 5.00	5.35	5.54	5.49	< 5.00	5.37	< 5.00	C=C1C(=O)OC2CC3=C[C@@H](C/C(C)=C/C(OC(=O)c4ccccc4)[C@H]12)OC3=O (stereo partly shown) [DETD-31]	< 5.12	< 5.00	< 5.00	
< 5.12	5.66	5.12	5.15	5.14	5.47	< 5.00	5.46	5.07	C=C1C(=O)OC2CC3=C[C@@H](C/C(C)=C/C(OC(=O)Cc4ccc(OC)cc4)[C@H]12)OC3=O (stereo partly shown) [DETD-44]	< 5.12	< 5.00	< 5.00	
< 5.12	5.46	5.32	5.29	5.20	< 5.00	< 5.00	5.59	5.22	C=C1C(=O)OC2CC3=C[C@@H](C/C(C)=C/[C@@H](OC(=O)Cc4coc5ccccc45)[C@H]12)OC3=O (stereo partly shown) [DETD-59]	< 5.12	< 5.00	< 5.00	
5.60	5.74	< 5.00	5.37	5.17	5.46	< 5.00	< 5.00	< 5.00	C=C1C(=O)OC2CC3=C[C@@H](C/C(C)=C/C(OC(=O)C(C)CCCC)[C@H]12)OC3=O (stereo partly shown) [DETD-22]	5.33	< 5.00	< 5.00	
5.38	5.48	< 5.00	5.15	5.14	5.49	< 5.00	< 5.00	< 5.00	C=C1C(=O)OC2CC3=C[C@@H](C/C(C)=C/C(OC(=O)/C=C(\C)C(C)C)[C@H]12)OC3=O (stereo partly shown) [DETD-12]	< 5.12	< 5.00	< 5.00	
< 5.12	< 5.12	< 5.00	5.02	< 5.00	5.47	< 5.00	5.31	< 5.00	C=C1C(=O)OC2CC3=C[C@@H](C/C(C)=C/C(OC(=O)/C=C/c4ccc(OC)c(OC)c4)[C@H]12)OC3=O (stereo partly shown) [DETD-49]	< 5.12	< 5.00	< 5.00	
5.59	5.48	< 5.00	5.26	5.08	5.47	< 5.00	< 5.00	< 5.00	C=C1C(=O)OC2CC3=C[C@@H](C/C(C)=C/C(OC(=O)CC(C)CC)[C@H]12)OC3=O (stereo partly shown) [DETD-18]	< 5.12	< 5.00	< 5.00	
< 5.12	5.21	< 5.00	< 5.12	< 5.00	5.30	< 5.00	< 5.00	< 5.00	C=C(C)C(=O)O[C@H]1CC2=C[C@@H](C/C(C)=C/[C@H]3OC(=O)[C@@H](CN(C)C)[C@H]13)OC2=O [DETD-1]	< 5.12	< 5.00	< 5.00	
5.43	5.82	< 5.00	5.39	5.30	5.77	< 5.00	< 5.00	< 5.00	C=C1C(=O)OC2CC3=C[C@@H](C/C(C)=C/C(OC(=O)/C=C/c4ccc(OC)cc4)[C@H]12)OC3=O (stereo partly shown) [DETD-26]	5.33	< 5.00	< 5.00	some toxicity
5.41	5.64	< 5.00	< 5.12	< 5.00	5.36	< 5.00	< 5.00	< 5.00	C=C1C(=O)OC2CC3=C[C@@H](C/C(C)=C/C(OC(=O)/C=C/C)[C@H]12)OC3=O (stereo partly shown) [DETD-24]	< 5.12	< 5.00	< 5.00	
5.41	5.68	< 5.00	5.15	< 5.00	5.49	< 5.00	< 5.00	< 5.00	C=C1C(=O)OC2CC3=C[C@@H](C/C(C)=C/C(OC(=O)C(CC)CC)[C@H]12)OC3=O (stereo partly shown) [DETD-16]	< 5.12	< 5.00	< 5.00	
< 5.12	5.36	< 5.00	5.11	5.03	< 5.00	5.03	5.34	5.06	C=C1C(=O)OC2CC3=C[C@@H](C/C(C)=C/C(OC(=O)/C=C/c4cccc(OCC)c4)[C@H]12)OC3=O (stereo partly shown) [DETD-50]	< 5.12	< 5.00	< 5.00	
5.47	5.74	< 5.00	5.21	5.35	5.66	< 5.00	< 5.00	< 5.00	C=C(C)C(=O)OC1/C=C(\C)C[C@@H]2C=C(CC3OC(=O)C(=C)[C@@H]13)C(=O)O2 (stereo partly shown) [DETD-4]	< 5.12	< 5.00	< 5.00	
< 5.12	< 5.12	< 5.00	< 4.82	< 5.00	< 5.00	< 5.00	< 5.00	< 5.00	C=C1C(=O)OC2CC3=C[C@@H](C/C(C)=C/C(OC(=O)Cc4cccc5cccnc45)[C@H]12)OC3=O (stereo partly shown) [DETD-52]	< 5.12	< 5.00	< 5.00	
5.47	5.72	< 5.00	5.17	5.17	5.60	< 5.00	< 5.00	< 5.00	C=C1C(=O)OC2CC3=C[C@@H](C/C(C)=C/C(OC(=O)C=C(C)C)[C@H]12)OC3=O (stereo partly shown) [DETD-8]	< 5.12	< 5.00	< 5.00	
5.39	5.66	< 5.00	5.31	5.17	5.80	< 5.00	< 5.00	< 5.00	C=C1C(=O)OC2CC3=C[C@@H](C/C(C)=C/C(OC(=O)/C=C/c4ccco4)[C@H]12)OC3=O (stereo partly shown) [DETD-29]	< 5.12	< 5.00	< 5.00	
